Results as given in ChEMBL document CHEMBL1795251, “Structure-based design of thienobenzoxepin inhibitors of PI3-kinase” (Bioorg Med Chem Lett, 2011).
Each block holds one molecule with its values, some of them ahead of it. Activity calls are given as the source filed them. The calls are words filed in the database; no cut-off is given here.

Tests used:
[1] = biological target: Phosphatidylinositol 4,5-bisphosphate 3-kinase catalytic subunit alpha isoform (Homo sapiens, UniProt P42336)
in vivo [2] = conditions: rat, plasma, iv, 1 mg/kg
in vivo [3] = conditions: mouse, plasma, iv, 1 mg/kg
[4] = biological target: Serine/threonine-protein kinase mTOR (Homo sapiens, UniProt P42345); experiment: Inhibition of mTOR
PC-3 = experiment: Antiproliferative activity against human PC3 cells; type: functional, cell-based
MCF7 = experiment: Antiproliferative activity against human MCF7 cells; type: functional, cell-based
[5] = Plasma protein binding in human; type: ADME, cell-free; conditions: read-out: PPB (converted)
[6] = Plasma protein binding in rat; type: ADME, cell-free; conditions: read-out: PPB (converted)
[7] = Plasma protein binding in mouse; type: ADME, cell-free; conditions: read-out: PPB (converted)
[8] = Plasma protein binding in dog; type: ADME, cell-free, Canis lupus familiaris; conditions: read-out: PPB (converted)
[9] = Plasma protein binding in cynomolgus monkey; type: ADME, cell-free, Macaca fascicularis; conditions: read-out: PPB
[10] = Plasma clearance in rat at 100 mg/kg; type: ADME, organism-based; set-up: dose 100 mg/kg
[11] = Oral bioavailability in rat at 100 mg/kg; type: ADME, organism-based; conditions: in vivo
[12] = AUC in rat at 100 mg/kg; type: ADME, organism-based; set-up: dose 100 mg/kg; conditions: plasma
[13] = Plasma clearance in mouse at 100 mg/kg; type: ADME, organism-based; set-up: dose 100 mg/kg
[14] = Oral bioavailability in mouse at 100 mg/kg; type: ADME, organism-based; conditions: in vivo
[15] = AUC in mouse at 100 mg/kg; type: ADME, organism-based; set-up: dose 100 mg/kg; conditions: plasma
[16] = Plasma clearance in cynomolgus monkey; type: ADME, organism-based, Macaca fascicularis
Mus musculus [17] = experiment: Inhibition of PI3K pathway in nude mouse xenografted with HER2 expressing MCF7 assessed as reduction in phosphorylated AKT levels at 50 mg/kg, po administered as single dose after 6 hrs relative to control; type: functional, organism-based; set-up: dose 50 mg/kg
Mus musculus [18] = experiment: Inhibition of PI3K pathway in nude mouse xenografted with HER2 expressing MCF7 assessed as reduction in phosphorylated PRAS40 levels at 50 mg/kg, po administered as single dose after 6 hrs relative to control; type: functional, organism-based; set-up: dose 50 mg/kg
Mus musculus [19] = experiment: Inhibition of PI3K pathway in nude mouse xenografted with HER2 expressing MCF7 assessed as reduction in phosphorylated S6RP levels at 50 mg/kg, po administered as single dose after 6 hrs relative to control; type: functional, organism-based; set-up: dose 50 mg/kg
[20] = Plasma clearance in dog at 2 mg/kg; type: ADME, organism-based, Canis lupus familiaris; set-up: dose 2 mg/kg
[21] = Oral bioavailability in dog at 2 mg/kg; type: ADME, organism-based, Canis lupus familiaris; conditions: in vivo
[22] = AUC in dog at 2 mg/kg; type: ADME, organism-based, Canis lupus familiaris; set-up: dose 2 mg/kg; conditions: plasma
[23] = biological target: DNA-dependent protein kinase catalytic subunit (Homo sapiens, UniProt P78527); experiment: Inhibition of DNA-PK
DNA-dependent protein kinase catalytic subunit, sequence (P78527 whole entry): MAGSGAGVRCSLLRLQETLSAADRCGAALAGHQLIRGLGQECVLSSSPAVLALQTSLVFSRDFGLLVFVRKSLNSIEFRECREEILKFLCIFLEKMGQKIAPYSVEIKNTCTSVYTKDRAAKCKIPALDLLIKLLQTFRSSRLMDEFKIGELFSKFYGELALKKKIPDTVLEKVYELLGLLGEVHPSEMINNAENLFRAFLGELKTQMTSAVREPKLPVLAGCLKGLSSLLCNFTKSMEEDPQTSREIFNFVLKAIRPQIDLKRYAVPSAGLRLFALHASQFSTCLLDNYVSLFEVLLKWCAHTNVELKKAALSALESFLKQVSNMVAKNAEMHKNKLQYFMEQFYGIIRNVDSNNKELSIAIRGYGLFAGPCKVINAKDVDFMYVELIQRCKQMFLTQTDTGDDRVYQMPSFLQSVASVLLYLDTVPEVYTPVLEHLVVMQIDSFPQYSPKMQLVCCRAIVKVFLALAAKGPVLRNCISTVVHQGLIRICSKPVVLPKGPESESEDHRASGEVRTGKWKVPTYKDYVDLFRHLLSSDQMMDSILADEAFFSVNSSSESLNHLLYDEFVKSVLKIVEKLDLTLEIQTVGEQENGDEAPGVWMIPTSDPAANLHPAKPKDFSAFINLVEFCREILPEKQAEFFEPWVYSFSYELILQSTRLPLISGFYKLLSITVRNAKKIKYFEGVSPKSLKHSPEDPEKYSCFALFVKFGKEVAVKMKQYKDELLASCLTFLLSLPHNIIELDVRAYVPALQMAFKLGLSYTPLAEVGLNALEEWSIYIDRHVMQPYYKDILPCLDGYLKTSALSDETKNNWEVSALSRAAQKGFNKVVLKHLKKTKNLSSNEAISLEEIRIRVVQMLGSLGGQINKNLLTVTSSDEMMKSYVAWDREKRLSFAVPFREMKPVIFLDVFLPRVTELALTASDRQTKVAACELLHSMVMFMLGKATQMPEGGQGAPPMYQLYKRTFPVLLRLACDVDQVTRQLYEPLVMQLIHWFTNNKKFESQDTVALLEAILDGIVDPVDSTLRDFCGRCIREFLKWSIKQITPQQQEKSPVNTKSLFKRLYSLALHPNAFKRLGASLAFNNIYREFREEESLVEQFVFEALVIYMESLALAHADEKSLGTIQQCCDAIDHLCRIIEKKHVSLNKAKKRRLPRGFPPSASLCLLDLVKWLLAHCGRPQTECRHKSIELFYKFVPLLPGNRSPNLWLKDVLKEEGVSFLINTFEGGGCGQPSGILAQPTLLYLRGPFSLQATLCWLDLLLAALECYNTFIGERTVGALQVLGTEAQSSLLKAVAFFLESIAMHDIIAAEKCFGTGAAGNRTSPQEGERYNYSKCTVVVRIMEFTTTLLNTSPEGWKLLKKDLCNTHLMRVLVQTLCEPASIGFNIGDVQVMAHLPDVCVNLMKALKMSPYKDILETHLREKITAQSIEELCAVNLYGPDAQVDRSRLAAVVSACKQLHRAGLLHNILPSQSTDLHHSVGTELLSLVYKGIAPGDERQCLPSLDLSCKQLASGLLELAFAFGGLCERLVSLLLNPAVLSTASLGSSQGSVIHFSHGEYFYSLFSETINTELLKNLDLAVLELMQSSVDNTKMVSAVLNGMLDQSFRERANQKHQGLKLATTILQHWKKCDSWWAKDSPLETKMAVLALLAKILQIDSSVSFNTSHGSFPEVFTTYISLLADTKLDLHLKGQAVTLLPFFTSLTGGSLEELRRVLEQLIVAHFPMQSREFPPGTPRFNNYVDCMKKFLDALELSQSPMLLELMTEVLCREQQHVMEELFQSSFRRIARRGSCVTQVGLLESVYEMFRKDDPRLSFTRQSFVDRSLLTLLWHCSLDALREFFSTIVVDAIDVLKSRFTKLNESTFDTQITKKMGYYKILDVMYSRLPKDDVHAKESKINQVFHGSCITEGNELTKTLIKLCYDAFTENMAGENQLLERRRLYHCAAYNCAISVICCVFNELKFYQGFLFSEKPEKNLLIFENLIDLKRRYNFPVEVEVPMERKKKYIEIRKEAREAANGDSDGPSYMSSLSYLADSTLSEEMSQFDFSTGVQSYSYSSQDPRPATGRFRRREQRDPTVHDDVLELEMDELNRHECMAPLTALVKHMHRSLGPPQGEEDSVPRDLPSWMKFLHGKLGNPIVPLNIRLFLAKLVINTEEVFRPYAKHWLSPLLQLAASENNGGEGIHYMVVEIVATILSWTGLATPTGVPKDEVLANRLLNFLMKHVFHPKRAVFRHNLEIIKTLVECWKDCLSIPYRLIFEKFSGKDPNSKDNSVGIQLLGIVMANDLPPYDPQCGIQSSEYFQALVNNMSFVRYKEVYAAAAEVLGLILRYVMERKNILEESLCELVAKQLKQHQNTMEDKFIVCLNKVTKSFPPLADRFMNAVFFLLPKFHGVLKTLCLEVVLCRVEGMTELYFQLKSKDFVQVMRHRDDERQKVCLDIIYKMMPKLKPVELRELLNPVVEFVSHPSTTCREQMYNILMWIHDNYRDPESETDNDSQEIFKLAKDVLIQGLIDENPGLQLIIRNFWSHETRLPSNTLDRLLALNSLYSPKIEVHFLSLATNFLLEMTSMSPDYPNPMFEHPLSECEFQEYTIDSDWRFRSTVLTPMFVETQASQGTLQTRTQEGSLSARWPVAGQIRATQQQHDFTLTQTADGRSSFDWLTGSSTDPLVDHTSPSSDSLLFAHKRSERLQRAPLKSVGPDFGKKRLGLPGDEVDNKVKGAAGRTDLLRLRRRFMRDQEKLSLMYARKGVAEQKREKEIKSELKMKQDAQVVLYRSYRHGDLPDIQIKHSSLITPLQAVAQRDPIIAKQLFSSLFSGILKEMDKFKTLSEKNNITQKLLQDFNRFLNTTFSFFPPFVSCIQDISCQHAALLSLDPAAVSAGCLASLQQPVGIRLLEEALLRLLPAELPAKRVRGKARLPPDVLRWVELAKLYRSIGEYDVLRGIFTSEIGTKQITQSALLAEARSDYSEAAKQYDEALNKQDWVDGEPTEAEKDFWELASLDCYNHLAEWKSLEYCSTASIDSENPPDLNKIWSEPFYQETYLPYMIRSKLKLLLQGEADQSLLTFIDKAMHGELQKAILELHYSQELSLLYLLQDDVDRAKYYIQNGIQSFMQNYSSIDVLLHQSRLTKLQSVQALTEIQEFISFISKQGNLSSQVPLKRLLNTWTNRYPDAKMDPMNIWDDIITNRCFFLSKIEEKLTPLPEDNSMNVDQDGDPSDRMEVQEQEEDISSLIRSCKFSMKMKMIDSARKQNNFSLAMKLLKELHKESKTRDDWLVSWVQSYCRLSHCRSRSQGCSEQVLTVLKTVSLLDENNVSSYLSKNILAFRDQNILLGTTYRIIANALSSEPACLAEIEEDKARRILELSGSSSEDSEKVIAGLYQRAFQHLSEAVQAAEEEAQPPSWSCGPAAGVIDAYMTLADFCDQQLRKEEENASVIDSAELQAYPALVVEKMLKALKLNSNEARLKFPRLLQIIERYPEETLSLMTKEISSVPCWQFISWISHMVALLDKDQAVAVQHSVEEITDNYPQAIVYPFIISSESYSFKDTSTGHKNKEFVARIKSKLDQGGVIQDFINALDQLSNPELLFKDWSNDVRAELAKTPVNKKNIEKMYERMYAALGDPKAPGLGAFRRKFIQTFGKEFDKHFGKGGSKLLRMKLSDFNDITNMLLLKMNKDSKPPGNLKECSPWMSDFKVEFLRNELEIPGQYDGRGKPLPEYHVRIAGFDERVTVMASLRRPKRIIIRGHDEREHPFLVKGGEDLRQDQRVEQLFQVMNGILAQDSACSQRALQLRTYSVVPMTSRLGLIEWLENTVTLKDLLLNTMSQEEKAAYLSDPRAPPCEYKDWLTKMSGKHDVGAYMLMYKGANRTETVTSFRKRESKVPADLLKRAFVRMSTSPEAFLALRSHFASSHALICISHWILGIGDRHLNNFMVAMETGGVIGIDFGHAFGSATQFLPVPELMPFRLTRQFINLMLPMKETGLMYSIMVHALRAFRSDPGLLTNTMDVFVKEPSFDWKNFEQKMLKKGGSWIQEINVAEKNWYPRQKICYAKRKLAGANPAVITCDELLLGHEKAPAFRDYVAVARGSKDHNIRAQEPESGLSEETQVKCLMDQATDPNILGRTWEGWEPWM

in vivo [24] = conditions: nude, mouse, plasma, po, 50 mg/kg
in vivo [25] = conditions: nude, mouse, plasma, po, 50 mg/kg; remark: listed apart in the source
in vivo [26] = conditions: nude, mouse, tumor, po, 50 mg/kg
in vivo [27] = conditions: nude, mouse, tumor, po, 50 mg/kg; remark: listed apart in the source
Hepatocyte = experiment: Metabolic stability in cryopreserved human hepatocytes assessed as N-(2-chlorophenyl)-N-methyl-8-(1H-pyrazol-4-yl)-4,5-dihydrobenzo[b]thieno[2,3-d]oxepine-2-carboxamide formation; type: ADME, cell-based

Phosphatidylinositol 4,5-bisphosphate 3-kinase catalytic subunit alpha isoform, sequence (P42336 whole entry, canonical isoform): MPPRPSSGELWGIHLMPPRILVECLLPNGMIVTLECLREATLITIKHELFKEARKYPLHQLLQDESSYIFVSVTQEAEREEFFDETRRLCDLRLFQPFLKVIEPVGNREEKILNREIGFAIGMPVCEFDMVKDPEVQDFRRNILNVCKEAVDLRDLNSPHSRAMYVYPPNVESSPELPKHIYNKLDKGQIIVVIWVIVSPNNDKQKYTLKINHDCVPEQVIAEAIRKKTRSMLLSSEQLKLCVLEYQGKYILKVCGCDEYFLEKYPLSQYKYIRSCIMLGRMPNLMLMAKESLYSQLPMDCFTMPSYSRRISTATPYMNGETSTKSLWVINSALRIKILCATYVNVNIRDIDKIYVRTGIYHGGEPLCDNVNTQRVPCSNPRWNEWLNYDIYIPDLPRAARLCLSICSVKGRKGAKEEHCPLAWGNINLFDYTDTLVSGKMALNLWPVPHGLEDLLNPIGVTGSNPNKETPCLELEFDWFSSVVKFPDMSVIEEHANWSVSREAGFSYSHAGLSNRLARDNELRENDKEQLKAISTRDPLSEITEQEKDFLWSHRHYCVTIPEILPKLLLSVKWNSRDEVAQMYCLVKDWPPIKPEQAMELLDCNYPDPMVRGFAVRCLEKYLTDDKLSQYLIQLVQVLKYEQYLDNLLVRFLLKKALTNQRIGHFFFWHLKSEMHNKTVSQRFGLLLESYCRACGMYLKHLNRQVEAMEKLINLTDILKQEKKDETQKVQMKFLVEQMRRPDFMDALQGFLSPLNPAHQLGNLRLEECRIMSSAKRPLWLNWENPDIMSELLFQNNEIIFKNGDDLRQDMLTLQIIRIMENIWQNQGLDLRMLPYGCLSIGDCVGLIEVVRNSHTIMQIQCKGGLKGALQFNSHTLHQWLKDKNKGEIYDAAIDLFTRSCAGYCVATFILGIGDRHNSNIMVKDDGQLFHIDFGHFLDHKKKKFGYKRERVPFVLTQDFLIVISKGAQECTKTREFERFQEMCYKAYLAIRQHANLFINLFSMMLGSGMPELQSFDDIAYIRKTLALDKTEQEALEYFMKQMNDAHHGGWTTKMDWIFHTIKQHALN

- Ki [1]: 65 nM
SMILES: CN(C(=O)c1cc2c(s1)-c1ccc(-c3cn[nH]c3)cc1OCC2)c1ccncc1Cl

- IC50 [1]: 5200 nM
SMILES: CC(C)N(C)C(=O)c1cc2c(s1)-c1ccccc1OC2

- Ki [1]: 2.5 nM
- clearance (in vivo [2]): 28 mL/min/kg
- clearance (in vivo [3]): 24 mL/min/kg
SMILES: CNC(=O)c1ccc(N(C)C(=O)c2cc3c(s2)-c2ccc(C(=O)NC)cc2OCC3)c(Cl)c1

- IC50 [4]: 530 nM
- EC50 (PC-3): 550 nM
- EC50 (MCF7): 256 nM
- fraction unbound [5]: 0.03
- fraction unbound [6]: 0.03
- fraction unbound [7]: 0.02
- fraction unbound [8]: 0.07
- fraction unbound [9]: 0.09
- clearance [10]: 36 mL/min/kg
- bioavailability [11]: 50%
- AUC [12]: 39 µM·h
- clearance [13]: 15 mL/min/kg
- bioavailability [14]: 28%
- AUC [15]: 330 µM·h
- clearance [16]: 10 mL/min/kg
- clearance [20]: 5 mL/min/kg
- bioavailability [21]: 120%
- AUC [22]: 17 µM·h
- IC50 [23]: 6 nM
- clearance (in vivo [2]): 36 mL/min/kg
- clearance (in vivo [3]): 15 mL/min/kg
- concentration at 1 h (in vivo [24]): 7.38 µM
- concentration at 6 h (in vivo [25]): 11.1 µM
- concentration at 1 h (in vivo [26]): 1.08 µM
- concentration at 6 h (in vivo [27]): 2.24 µM
SMILES: CNC(=O)c1ccc2c(c1)OCCc1cc(C(=O)N(C)c3ccc(C(=O)N(C)C)cc3Cl)sc1-2
- inhibition (Mus musculus [17]): Active
- inhibition (Mus musculus [18]): Active
- inhibition (Mus musculus [19]): Active

- Ki [1]: 1.5 nM
- clearance (in vivo [2]): 44 mL/min/kg
SMILES: COC(=O)Nc1ccc2c(c1)OCCc1cc(C(=O)N(C)c3ccccc3Cl)sc1-2

- Ki [1]: 1.2 nM
- clearance (in vivo [2]): 89 mL/min/kg
SMILES: CN(C(=O)c1cc2c(s1)-c1ccc(C(N)=O)cc1OCC2)c1ccccc1Cl

- IC50 [1]: 699 nM
SMILES: Cc1ccccc1N(C)C(=O)c1cc2c(s1)-c1ccccc1OC2

- IC50 [1]: 1000 nM
SMILES: CN(C(=O)c1cc2c(s1)-c1ccccc1OC2)c1ccc(F)cc1

- Ki [1]: 473 nM
- clearance (in vivo [2]): 23 mL/min/kg
SMILES: CN(C(=O)c1cc2c(s1)-c1ccccc1OCC2)c1ccncc1Cl

- clearance (in vivo [2]): 153 mL/min/kg
- clearance (in vivo [3]): 182 mL/min/kg
SMILES: CNC(=O)c1ccc2c(c1)OCCc1cc(C(=O)N(C)c3ccc(F)cc3Cl)sc1-2

- Ki [1]: 31 nM
SMILES: CN(C(=O)c1cc2c(s1)-c1ccc(C(=O)N3CCOCC3)cc1OCC2)c1ccccc1Cl

- Stability (Hepatocyte): 5 µM
SMILES: CNC(=O)c1ccc2c(c1)OCCc1cc(C(=O)N(C)c3ccccc3Cl)sc1-2

- clearance (in vivo [2]): 66 mL/min/kg
- clearance (in vivo [3]): 55 mL/min/kg
SMILES: CNC(=O)c1ccc2c(c1)OCCc1cc(C(=O)N(C)c3cc(C(=O)N(C)C)ccc3Cl)sc1-2

- IC50 [1]: 17000 nM
SMILES: CC(C)CN(C)C(=O)c1cc2c(s1)-c1ccccc1OC2

- Ki [1]: 0.6 nM
SMILES: CN(C(=O)c1cc2c(s1)-c1ccc(-c3cn[nH]c3)cc1OCC2)c1ccccc1Cl

- clearance (in vivo [2]): 60 mL/min/kg
SMILES: CN(C(=O)c1cc2c(s1)-c1ccccc1OCC2)c1ccccc1Cl

- IC50 [1]: 1000 nM
SMILES: CN(C(=O)c1cc2c(s1)-c1ccccc1OC2)c1cccc(F)c1

- IC50 [1]: > 10000 nM
SMILES: CN(C(=O)c1cc2c(s1)-c1ccccc1OC2)c1ccccn1

- IC50 [1]: > 10000 nM
SMILES: CN(C(=O)c1cc2c(s1)-c1ccccc1OCCC2)c1ccccc1Cl

- IC50 [1]: 673 nM
SMILES: COc1ccccc1N(C)C(=O)c1cc2c(s1)-c1ccccc1OC2
